Assay results as given in ChEMBL document CHEMBL1141677, “Synthesis and structure-antibacterial activity of triazolyl oxazolidinones containing long chain acyl moiety” (2008).
Converted amounts (≈) assume the structure as drawn.

Columns and labels:
Assay type in all cases: functional
[1] = test system: Staphylococcus; experiment: Antibacterial activity against methicillin-resistant coagulase-negative Staphylococcus clinical isolate after 18 hrs by agar dilution method
[2] = test system: Staphylococcus; experiment: Antibacterial activity against methicillin-susceptible coagulase-negative Staphylococcus clinical isolate after 18 hrs by agar dilution method
[3] = test system: Staphylococcus aureus; experiment: Antibacterial activity against methicillin-resistant Staphylococcus aureus clinical isolate after 18 hrs by agar dilution method; conditions: for MIC: Staphylococcus aureus, 18 h
[4] = test system: Staphylococcus aureus; experiment: Antibacterial activity against methicillin-susceptible Staphylococcus aureus clinical isolate after 18 hrs by agar dilution method
[5] = test system: Staphylococcus aureus; experiment: Antibacterial activity against Staphylococcus aureus ATCC 25923 after 18 hrs by agar dilution method in presence of 50% human plasma; conditions: ATCC 25923, Plasma
[6] = test system: Staphylococcus aureus; experiment: Antibacterial activity against Staphylococcus aureus ATCC 25923 after 18 hrs by agar dilution method; conditions: for MIC: Staphylococcus aureus, ATCC 25923, 18 h
[7] = test system: Moraxella catarrhalis; experiment: Antibacterial activity against Moraxella catarrhalis clinical isolate after 18 hrs by agar dilution method
[8] = test system: Haemophilus influenzae; experiment: Antibacterial activity against Haemophilus influenzae clinical isolate after 18 hrs by agar dilution method
[9] = test system: Enterococcus; experiment: Antibacterial activity against vancomycin-resistant Enterococcus after 18 hrs by agar dilution method
[10] = test system: Enterococcus; experiment: Antibacterial activity against vancomycin-sensitive Enterococcus after 18 hrs by agar dilution method
[11] = test system: Streptococcus pneumoniae; experiment: Antibacterial activity against penicillin-resistant Streptococcus pneumoniae after 18 hrs by agar dilution method
[12] = test system: Escherichia coli; experiment: Antibacterial activity against Escherichia coli ATCC 25922 after 18 hrs by agar dilution method; conditions: ATCC 25922, 18 h

SMILES	MIC [1] [mg/L]	MIC [2] [mg/L]	MIC [3] [mg/L]	MIC [4] [mg/L]	MIC [5] [mg/L]	MIC [6] [mg/L]	MIC [7] [mg/L]	MIC [8] [mg/L]	MIC [9] [mg/L]	MIC [10] [mg/L]	MIC [11] [mg/L]	MIC [12] [mg/L]	-logMIC [6]	-logMIC [3]
O=C1O[C@@H](Cn2ccnn2)CN1c1ccc(N2CCOCC2)c(F)c1	0.5 (≈ 1.44 µM)	0.5 (≈ 1.44 µM)	0.5 (≈ 1.44 µM)	0.5 (≈ 1.44 µM)	1	1 (≈ 2.88 µM)	≥ 8	≥ 8	1 (≈ 2.88 µM)	0.5 (≈ 1.44 µM)	0.5 (≈ 1.44 µM)	≥ 8		
CCCCCCCCCCC(=O)N1CCN(c2ccc(N3C[C@H](Cn4ccnn4)OC3=O)cc2F)CC1		> 16		> 16	> 16	> 16	≥ 8	≥ 8		> 16	> 16	≥ 8	1.51	
O=C(CC1CC2CCC1C2)N1CCN(c2ccc(N3C[C@H](Cn4ccnn4)OC3=O)cc2F)CC1 (stereo partly specified)	2 (≈ 4.14 µM)	2 (≈ 4.14 µM)	2 (≈ 4.14 µM)	2 (≈ 4.14 µM)	> 16	4 (≈ 8.29 µM)	≥ 8	≥ 8	4 (≈ 8.29 µM)	2 (≈ 4.14 µM)	4 (≈ 8.29 µM)	≥ 8	2.08	2.38
CCCCCCCC(=O)N1CCN(c2ccc(N3C[C@H](Cn4ccnn4)OC3=O)cc2F)CC1	2 (≈ 4.23 µM)	2 (≈ 4.23 µM)	2 (≈ 4.23 µM)	4 (≈ 8.46 µM)	> 16	8 (≈ 16.9 µM)	≥ 8	≥ 8	4 (≈ 8.46 µM)	4 (≈ 8.46 µM)	> 16	≥ 8	2.07	2.37
CCCCCCC(=O)N1CCN(c2ccc(N3C[C@H](Cn4ccnn4)OC3=O)cc2F)CC1	2 (≈ 4.36 µM)	1 (≈ 2.18 µM)	2 (≈ 4.36 µM)	2 (≈ 4.36 µM)	> 16	4 (≈ 8.72 µM)	≥ 8	≥ 8	4 (≈ 8.72 µM)	4 (≈ 8.72 µM)	4 (≈ 8.72 µM)	≥ 8	2.06	2.36
CC(C)C(=O)N1CCN(c2ccc(N3C[C@H](Cn4ccnn4)OC3=O)cc2F)CC1	1 (≈ 2.4 µM)	1 (≈ 2.4 µM)	1 (≈ 2.4 µM)	1 (≈ 2.4 µM)	2	2 (≈ 4.8 µM)	≥ 8	≥ 8	1 (≈ 2.4 µM)	1 (≈ 2.4 µM)	0.5 (≈ 1.2 µM)	≥ 8	2.32	2.62
O=C(C1CCCCC1)N1CCN(c2ccc(N3C[C@H](Cn4ccnn4)OC3=O)cc2F)CC1	1 (≈ 2.19 µM)	1 (≈ 2.19 µM)	1 (≈ 2.19 µM)	1 (≈ 2.19 µM)	4	4 (≈ 8.76 µM)	≥ 8	≥ 8	1 (≈ 2.19 µM)	1 (≈ 2.19 µM)	0.5 (≈ 1.1 µM)	≥ 8	2.06	2.66
CCCCCCCCCCCCCCCCCC(=O)N1CCN(c2ccc(N3C[C@H](Cn4ccnn4)OC3=O)cc2F)CC1		> 16		> 16	> 16	> 16	≥ 8	≥ 8		> 16	> 16	≥ 8	1.58	
CCCCCCCCCCCCCCCC(=O)N1CCN(c2ccc(N3C[C@H](Cn4ccnn4)OC3=O)cc2F)CC1		> 16		> 16	> 16	> 16	≥ 8	≥ 8		> 16	> 16	≥ 8	1.56	
CCCCCCCCCC(=O)N1CCN(c2ccc(N3C[C@H](Cn4ccnn4)OC3=O)cc2F)CC1		> 16		> 16	> 16	> 16	≥ 8	≥ 8		> 16	> 16	≥ 8	1.5	
O=C(C1CCCC1)N1CCN(c2ccc(N3C[C@H](Cn4ccnn4)OC3=O)cc2F)CC1	1 (≈ 2.26 µM)	1 (≈ 2.26 µM)	1 (≈ 2.26 µM)	1 (≈ 2.26 µM)	4	2 (≈ 4.52 µM)	≥ 8	≥ 8	1 (≈ 2.26 µM)	1 (≈ 2.26 µM)	1 (≈ 2.26 µM)	≥ 8	2.34	2.65
CCCCCCCCC(=O)N1CCN(c2ccc(N3C[C@H](Cn4ccnn4)OC3=O)cc2F)CC1	4 (≈ 8.22 µM)	4 (≈ 8.22 µM)	4 (≈ 8.22 µM)	8 (≈ 16.4 µM)	> 16	> 16	≥ 8	≥ 8	8 (≈ 16.4 µM)	8 (≈ 16.4 µM)	> 16	≥ 8	1.78	2.09
CCCCCC(=O)N1CCN(c2ccc(N3C[C@H](Cn4ccnn4)OC3=O)cc2F)CC1	1 (≈ 2.25 µM)	1 (≈ 2.25 µM)	2 (≈ 4.5 µM)	4 (≈ 9 µM)	> 16	4 (≈ 9 µM)	≥ 8	≥ 8	4 (≈ 9 µM)	4 (≈ 9 µM)	2 (≈ 4.5 µM)	≥ 8	2.05	2.35
CCCCCCCCCCCCCC(=O)N1CCN(c2ccc(N3C[C@H](Cn4ccnn4)OC3=O)cc2F)CC1		> 16		> 16	> 16	> 16	≥ 8	≥ 8		> 16	> 16	≥ 8	1.54	
CC(=O)NC[C@H]1CN(c2ccc(N3CCOCC3)c(F)c2)C(=O)O1 [LINEZOLID]	1 (≈ 2.96 µM)	0.25 (≈ 0.741 µM)	0.5 (≈ 1.48 µM)	1 (≈ 2.96 µM)			≥ 8	≥ 8	2 (≈ 5.93 µM)	0.5 (≈ 1.48 µM)		≥ 8		
CN[C@H](CC(C)C)C(=O)N[C@H]1C(=O)N[C@@H](CC(N)=O)C(=O)N[C@H]2C(=O)N[C@H]3C(=O)N[C@H](C(=O)N[C@H](C(=O)O)c4cc(O)cc(O)c4-c4cc3ccc4O)[C@H](O)c3ccc(c(Cl)c3)Oc3cc2cc(c3O[C@@H]2O[C@H](CO)[C@@H](O)[C@H](O)[C@H]2O[C@H]2C[C@](C)(N)[C@H](O)[C@H](C)O2)Oc2ccc(cc2Cl)[C@H]1O [VANCOMYCIN]	1 (≈ 0.69 µM)	1 (≈ 0.69 µM)					≥ 8	≥ 8	> 64	0.25 (≈ 0.173 µM)	0.5 (≈ 0.345 µM)	≥ 8		
